Results as given in publication PMC12396409, “Screening and hit evaluation of a microbial metabolite library against the pathogenic Plasmodium falciparum and Toxoplasma gondii parasites” (International Journal for Parasitology: Drugs and Drug …, 2025).
Like-named read-outs stand apart in the source and are kept apart here. Where a SMILES comes first, the peptide text is derived from it. [ ]: non-standard residue; d: D form. aIle = CC[C@@H](C)[C@H](N)C(=O)O

What was measured:
[1] = system: P. falciparum 3D7 parasites; assay: P. falciparum growth inhibition assay, 1-cycle (72 h treatment), SYBR DNA staining (library screen at 2 μg/mL and dose-response); assay type: cell-based, Plasmodium falciparum; settings: 72 h; for activity at 2 µg/mL: Plasmodium falciparum
[2] = system: P. falciparum 3D7 parasites; assay: P. falciparum growth inhibition assay, 2-cycle (120 h treatment), delayed-death screen and dose-response; assay type: cell-based, Plasmodium falciparum; settings: 120 h; for activity at 2 µg/mL: Plasmodium falciparum
[3] = system: T. gondii RH strain (RH-Tub-eYFP) tachyzoites; assay: microbe, parasite or virus in culture; assay type: cell-based, Toxoplasma gondii; settings: 72 h; for percent parasite growth at 2 µg/mL: Toxoplasma gondii
[4] = library screen at 2 μg/mL, % growth, replicate 1
[5] = library screen at 2 μg/mL, % growth, replicate 2
[6] = P. falciparum, screen at 2 μg/mL, replicate 1
[7] = P. falciparum, screen at 2 μg/mL, replicate 2
[8] = T. gondii, screen at 2 μg/mL, replicate 1
[9] = T. gondii, screen at 2 μg/mL, replicate 2
[10] = P. falciparum, parasite screen 2 μg/mL, % growth, replicate 1
[11] = P. falciparum, parasite screen 2 μg/mL, % growth, replicate 2
[12] = T. gondii, parasite screen 2 μg/mL, % growth, replicate 1
[13] = T. gondii, parasite screen 2 μg/mL, % growth, replicate 2

CCCCCC[C@H]1C(=O)O[C@H](C)[C@@H](O)/C=C/C=C/C=C/C=C/C=C(\C)[C@@H](O)C[C@H](O)C[C@H](O)C[C@H](O)C[C@H](O)C[C@H](O)C[C@@H]1O [Filipin II]
Pf_72h_%Growth_Rep1 [1, 4]: 85.18% | Pf_72h_%Growth_Rep2 [1, 5]: 87.84% | Pf_120h_%Growth_Rep1 [2, 4]: 90.65% | Pf_120h_%Growth_Rep2 [2, 5]: 90.94% | Tg_72h_%Growth_Rep1 [3, 4]: 129.59% | Tg_72h_%Growth_Rep2 [3, 5]: 103.40%

C[C@H]1C(=O)N2c3ccccc3[C@@]3(O)C[C@@H](n4cnc5ccccc5c4=O)C(=O)N1[C@@H]23 [Chaetominine]
Pf_72h_%Growth_Rep1 [1, 6]: 81.47% | Pf_72h_%Growth_Rep2 [1, 7]: 84.79% | Pf_120h_%Growth_Rep1 [2, 6]: 101.17% | Pf_120h_%Growth_Rep2 [2, 7]: 95.94% | Tg_72h_%Growth_Rep1 [3, 8]: 140.61% | Tg_72h_%Growth_Rep2 [3, 9]: 97.41%

Nc1cc2nc3ccccc3oc-2cc1=O [Questiomycin A]
Pf_72h_%Growth_Rep1 [1, 10]: 72.04% | Pf_72h_%Growth_Rep2 [1, 11]: 68.55% | Pf_120h_%Growth_Rep1 [2, 10]: 44.88% | Pf_120h_%Growth_Rep2 [2, 11]: 66.03% | Tg_72h_%Growth_Rep1 [3, 12]: 83.12% | Tg_72h_%Growth_Rep2 [3, 13]: 77.23%

Capreomycin sulfate
Pf_72h_%Growth_Rep1 [1, 6]: 82.18% | Pf_72h_%Growth_Rep2 [1, 7]: 86.69% | Pf_120h_%Growth_Rep1 [2, 6]: 94.57% | Pf_120h_%Growth_Rep2 [2, 7]: 87.91% | Tg_72h_%Growth_Rep1 [3, 8]: 114.86% | Tg_72h_%Growth_Rep2 [3, 9]: 91.40%

C[C@H]1CCCC(=O)CCC/C=C/c2cc(O)cc(O)c2C(=O)O1 [Zearalenone]
activity at 2 µg/mL ([1]; 3D7, P. falciparum, screen at 2 μg/mL, replicate 1, read-out: Pf_72h_%Growth_Rep1): 89.4% | activity at 2 µg/mL ([1]; 3D7, P. falciparum, screen at 2 μg/mL, replicate 2, read-out: Pf_72h_%Growth_Rep2): 99.7% | activity at 2 µg/mL ([2]; 3D7, P. falciparum, screen at 2 μg/mL, replicate 1, read-out: Pf_120h_%Growth_Rep1): 88.9% | activity at 2 µg/mL ([2]; 3D7, P. falciparum, screen at 2 μg/mL, replicate 2, read-out: Pf_120h_%Growth_Rep2): 64.3% | percent parasite growth at 2 µg/mL ([3]; T. gondii, screen at 2 μg/mL, replicate 1, read-out: Tg_72h_%Growth_Rep1): 104% | percent parasite growth at 2 µg/mL ([3]; T. gondii, screen at 2 μg/mL, replicate 2, read-out: Tg_72h_%Growth_Rep2): 74%

COc1c(Cl)c(O)c(Cl)c(C)c1C(=O)O[C@H]1[C@H](O)C[C@H](O[C@H]2[C@@H](O)CC(=O)O[C@@H]2C)O[C@@H]1C [Flambalactone]
Pf_72h_%Growth_Rep1 [1, 4]: 83.21% | Pf_72h_%Growth_Rep2 [1, 5]: 82.63% | Pf_120h_%Growth_Rep1 [2, 4]: 97.51% | Pf_120h_%Growth_Rep2 [2, 5]: 89.66% | Tg_72h_%Growth_Rep1 [3, 4]: 143.45% | Tg_72h_%Growth_Rep2 [3, 5]: 100.30%

CC[C@@H](C)[C@@H]1NC(=O)[C@@H](CC(C)C)NC(=O)[C@H](CC(C)C)NC(=O)[C@H](Cc2c[nH]c3ccccc23)NC(=O)CNC(=O)[C@H](CC(N)=O)NC1=O [Desotamide] (cyclo(GWL[dL][aIle]N))
activity at 2 µg/mL ([1]; 3D7, library screen at 2 μg/mL, % growth, replicate 1, read-out: Pf_72h_%Growth_Rep1): 67.3% | activity at 2 µg/mL ([1]; 3D7, library screen at 2 μg/mL, % growth, replicate 2, read-out: Pf_72h_%Growth_Rep2): 64.4% | activity at 2 µg/mL ([2]; 3D7, library screen at 2 μg/mL, % growth, replicate 1, read-out: Pf_120h_%Growth_Rep1): 36% | activity at 2 µg/mL ([2]; 3D7, library screen at 2 μg/mL, % growth, replicate 2, read-out: Pf_120h_%Growth_Rep2): 50.7% | percent parasite growth at 2 µg/mL ([3]; library screen at 2 μg/mL, % growth, replicate 1, read-out: Tg_72h_%Growth_Rep1): 120% | percent parasite growth at 2 µg/mL ([3]; library screen at 2 μg/mL, % growth, replicate 2, read-out: Tg_72h_%Growth_Rep2): 93%

COC1=C(N)C(=O)c2nc(-c3nc(C(=O)O)c(C)c(-c4ccc(OC)c(OC)c4O)c3N)ccc2C1=O [Streptonigrin]
activity at 2 µg/mL ([1]; 3D7, 72 h, P. falciparum, parasite screen 2 μg/mL, % growth, replicate 1, read-out: Pf_72h_%Growth_Rep1): 2.61% | activity at 2 µg/mL ([1]; 3D7, 72 h, P. falciparum, parasite screen 2 μg/mL, % growth, replicate 2, read-out: Pf_72h_%Growth_Rep2): -8.29% | activity at 2 µg/mL ([2]; 3D7, 120 h, P. falciparum, parasite screen 2 μg/mL, % growth, replicate 1, read-out: Pf_120h_%Growth_Rep1): 43.2% | activity at 2 µg/mL ([2]; 3D7, 120 h, P. falciparum, parasite screen 2 μg/mL, % growth, replicate 2, read-out: Pf_120h_%Growth_Rep2): 6.18% | percent parasite growth at 2 µg/mL ([3]; T. gondii, parasite screen 2 μg/mL, % growth, replicate 1, read-out: Tg_72h_%Growth_Rep1): 3.6% | percent parasite growth at 2 µg/mL ([3]; T. gondii, parasite screen 2 μg/mL, % growth, replicate 2, read-out: Tg_72h_%Growth_Rep2): 2.59%

C[C@@H]1CC[C@H](O)/C=C/C(=O)O[C@H](C)CC[C@H](O)/C=C/C(=O)O1 [Pyrenophorol]
Pf_72h_%Growth_Rep1 [1, 10]: 90.24% | Pf_72h_%Growth_Rep2 [1, 11]: 103.36% | Pf_120h_%Growth_Rep1 [2, 10]: 102.30% | Pf_120h_%Growth_Rep2 [2, 11]: 75.99% | Tg_72h_%Growth_Rep1 [3, 12]: 105.85% | Tg_72h_%Growth_Rep2 [3, 13]: 74.43%
